Results published in the kinase profiling compilation of Christmann-Franck et al. (2016).

Legend:
Experiment in all cases: radiometric filter-binding kinase assay, Kinase HotSpot
Conditions in all cases: compound 0.5 µM; ATP 10 µM
[1] = target: MAPK14 (human) (UniProt Q16539)
[2] = target: RPS6KA5 KD2 (human) (UniProt O75582)
[3] = target: MARK3 (human) (UniProt P27448)
[4] = target: PIM2 (human) (UniProt Q9P1W9)
[5] = target: PRKCB1 (human) (UniProt P05771)
[6] = target: GSK3B (human) (UniProt P49841)
[7] = target: MAPK10 (human) (UniProt P53779)
[8] = target: ERBB4 (human) (UniProt Q15303)
[9] = target: PHKG1 (human) (UniProt Q16816)
[10] = target: PRKCZ (human) (UniProt Q05513)
[11] = target: FLT3 (human) (UniProt P36888)
[12] = target: EPHB1 (human) (UniProt P54762)
Sequence of EPHB1 (human) (P54762 whole entry, looked up): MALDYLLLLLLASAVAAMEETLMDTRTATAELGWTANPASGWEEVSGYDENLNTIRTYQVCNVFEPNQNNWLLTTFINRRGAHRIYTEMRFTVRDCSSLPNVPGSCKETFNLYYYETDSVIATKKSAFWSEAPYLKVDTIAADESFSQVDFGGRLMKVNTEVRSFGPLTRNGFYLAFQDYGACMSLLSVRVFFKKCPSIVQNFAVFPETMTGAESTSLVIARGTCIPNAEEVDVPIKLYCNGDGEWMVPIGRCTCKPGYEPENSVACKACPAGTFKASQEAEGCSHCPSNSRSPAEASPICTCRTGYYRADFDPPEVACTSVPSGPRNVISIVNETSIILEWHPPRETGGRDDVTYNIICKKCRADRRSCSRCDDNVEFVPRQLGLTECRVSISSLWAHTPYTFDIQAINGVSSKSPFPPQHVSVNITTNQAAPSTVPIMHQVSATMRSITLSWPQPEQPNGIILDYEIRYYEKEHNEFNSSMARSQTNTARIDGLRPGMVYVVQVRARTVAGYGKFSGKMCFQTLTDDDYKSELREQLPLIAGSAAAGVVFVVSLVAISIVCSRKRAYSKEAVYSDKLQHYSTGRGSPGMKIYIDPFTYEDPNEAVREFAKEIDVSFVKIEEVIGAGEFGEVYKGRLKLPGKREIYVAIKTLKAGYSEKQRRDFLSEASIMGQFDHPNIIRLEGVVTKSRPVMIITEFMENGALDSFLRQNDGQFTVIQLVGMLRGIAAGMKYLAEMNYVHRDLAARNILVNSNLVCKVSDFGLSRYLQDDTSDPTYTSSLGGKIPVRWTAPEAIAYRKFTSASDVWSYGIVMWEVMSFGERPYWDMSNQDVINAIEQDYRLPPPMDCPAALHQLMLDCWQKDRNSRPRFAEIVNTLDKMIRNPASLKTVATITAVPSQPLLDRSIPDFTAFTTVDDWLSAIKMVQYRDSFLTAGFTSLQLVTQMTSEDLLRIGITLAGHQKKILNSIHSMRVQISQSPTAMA

[13] = target: MYLK2 (human) (UniProt Q9H1R3)
[14] = target: CAMK2G (human) (UniProt Q13555)
Sequence of CAMK2G (human) (Q13555 whole entry, looked up): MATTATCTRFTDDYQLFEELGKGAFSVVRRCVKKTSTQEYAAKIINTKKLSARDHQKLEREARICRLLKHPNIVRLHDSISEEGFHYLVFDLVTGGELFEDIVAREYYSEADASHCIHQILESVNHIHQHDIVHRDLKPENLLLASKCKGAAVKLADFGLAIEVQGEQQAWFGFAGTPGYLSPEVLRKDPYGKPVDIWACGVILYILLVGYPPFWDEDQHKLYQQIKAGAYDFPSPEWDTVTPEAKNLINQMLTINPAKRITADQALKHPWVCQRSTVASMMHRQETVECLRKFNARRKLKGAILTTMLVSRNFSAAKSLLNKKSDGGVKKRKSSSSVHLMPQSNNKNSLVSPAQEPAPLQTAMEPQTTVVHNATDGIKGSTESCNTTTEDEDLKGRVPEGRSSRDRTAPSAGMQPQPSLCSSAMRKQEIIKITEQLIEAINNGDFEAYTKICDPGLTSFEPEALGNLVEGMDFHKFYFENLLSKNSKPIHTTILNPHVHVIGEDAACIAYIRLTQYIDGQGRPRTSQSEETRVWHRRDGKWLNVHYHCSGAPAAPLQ

[15] = target: CLK4 (human) (UniProt Q9HAZ1)
Sequence of CLK4 (human) (Q9HAZ1 whole entry, looked up): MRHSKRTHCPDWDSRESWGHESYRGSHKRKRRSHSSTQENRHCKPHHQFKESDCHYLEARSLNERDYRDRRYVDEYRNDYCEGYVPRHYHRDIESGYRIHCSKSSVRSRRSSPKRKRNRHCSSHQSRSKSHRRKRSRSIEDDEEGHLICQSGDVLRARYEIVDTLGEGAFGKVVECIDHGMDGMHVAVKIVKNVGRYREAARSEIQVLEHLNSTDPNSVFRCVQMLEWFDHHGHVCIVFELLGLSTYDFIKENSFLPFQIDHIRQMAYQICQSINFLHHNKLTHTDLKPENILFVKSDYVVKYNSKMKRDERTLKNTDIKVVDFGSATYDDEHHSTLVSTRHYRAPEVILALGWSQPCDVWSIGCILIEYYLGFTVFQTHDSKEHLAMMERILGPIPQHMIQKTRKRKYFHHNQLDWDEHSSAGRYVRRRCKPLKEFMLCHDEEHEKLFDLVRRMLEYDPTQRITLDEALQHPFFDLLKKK

[16] = target: PRKCG (human) (UniProt P05129)
[17] = target: IRAK1 (human) (UniProt P51617)
[18] = target: FGFR2 (human) (UniProt P21802)
[19] = target: AURKA (human) (UniProt O14965)
Sequence of AURKA (human) (O14965 whole entry, looked up): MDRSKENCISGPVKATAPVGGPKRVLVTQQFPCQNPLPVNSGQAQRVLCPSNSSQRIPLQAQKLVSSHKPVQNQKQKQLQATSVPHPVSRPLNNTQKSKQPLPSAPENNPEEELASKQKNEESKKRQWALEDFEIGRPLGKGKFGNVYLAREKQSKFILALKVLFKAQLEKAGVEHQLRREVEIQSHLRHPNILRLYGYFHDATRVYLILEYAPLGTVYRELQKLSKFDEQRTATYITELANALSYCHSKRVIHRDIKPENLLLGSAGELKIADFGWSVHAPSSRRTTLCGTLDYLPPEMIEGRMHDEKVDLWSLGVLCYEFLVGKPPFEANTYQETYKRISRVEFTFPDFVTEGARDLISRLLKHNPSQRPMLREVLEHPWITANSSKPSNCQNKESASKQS

[20] = target: MARK1 (human) (UniProt Q9P0L2)
[21] = target: WNK3 (human) (UniProt Q9BYP7)
[22] = target: PKN1 (human) (UniProt Q16512)
[23] = target: DAPK3 (human) (UniProt O43293)
[24] = target: PAK6 (human) (UniProt Q9NQU5)
Sequence of PAK6 (human) (Q9NQU5 whole entry, looked up): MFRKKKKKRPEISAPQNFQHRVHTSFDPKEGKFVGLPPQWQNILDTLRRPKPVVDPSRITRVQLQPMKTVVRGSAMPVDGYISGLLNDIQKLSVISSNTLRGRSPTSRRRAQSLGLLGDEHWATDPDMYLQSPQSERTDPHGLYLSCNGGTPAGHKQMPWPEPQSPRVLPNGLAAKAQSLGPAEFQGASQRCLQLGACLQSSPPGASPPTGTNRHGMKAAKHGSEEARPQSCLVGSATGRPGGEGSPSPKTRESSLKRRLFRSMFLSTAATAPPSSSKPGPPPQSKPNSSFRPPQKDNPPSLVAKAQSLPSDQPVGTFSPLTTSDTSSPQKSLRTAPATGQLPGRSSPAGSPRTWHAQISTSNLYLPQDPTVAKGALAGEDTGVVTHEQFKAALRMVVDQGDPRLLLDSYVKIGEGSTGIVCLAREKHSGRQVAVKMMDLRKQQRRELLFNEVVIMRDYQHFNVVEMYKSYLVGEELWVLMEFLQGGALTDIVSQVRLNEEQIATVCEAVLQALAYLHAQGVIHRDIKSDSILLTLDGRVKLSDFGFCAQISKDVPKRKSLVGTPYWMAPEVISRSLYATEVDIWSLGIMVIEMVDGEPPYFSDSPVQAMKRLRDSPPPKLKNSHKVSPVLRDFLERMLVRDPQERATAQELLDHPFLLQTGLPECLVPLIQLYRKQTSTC

[25] = target: SIK2 (human) (UniProt Q9H0K1)
[26] = target: AURKB (human) (UniProt Q96GD4)
[27] = target: FGFR3 (human) (UniProt P22607)
[28] = target: MAPK13 (human) (UniProt O15264)
Sequence of MAPK13 (human) (O15264 whole entry, looked up): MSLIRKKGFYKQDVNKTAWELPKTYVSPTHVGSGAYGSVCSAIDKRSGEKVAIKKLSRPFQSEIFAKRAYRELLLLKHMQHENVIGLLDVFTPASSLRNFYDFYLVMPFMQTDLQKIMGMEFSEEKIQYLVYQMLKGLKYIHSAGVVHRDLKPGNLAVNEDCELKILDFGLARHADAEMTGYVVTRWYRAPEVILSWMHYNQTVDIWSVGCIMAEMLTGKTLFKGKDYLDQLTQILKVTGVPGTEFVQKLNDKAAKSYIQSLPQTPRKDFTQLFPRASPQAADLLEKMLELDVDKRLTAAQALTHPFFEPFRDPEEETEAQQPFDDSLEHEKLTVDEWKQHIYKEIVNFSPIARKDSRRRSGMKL

[29] = target: ULK1 (human) (UniProt O75385)
[30] = target: GRK4 (human) (UniProt P32298)
Sequence of GRK4 (human) (P32298 whole entry, looked up): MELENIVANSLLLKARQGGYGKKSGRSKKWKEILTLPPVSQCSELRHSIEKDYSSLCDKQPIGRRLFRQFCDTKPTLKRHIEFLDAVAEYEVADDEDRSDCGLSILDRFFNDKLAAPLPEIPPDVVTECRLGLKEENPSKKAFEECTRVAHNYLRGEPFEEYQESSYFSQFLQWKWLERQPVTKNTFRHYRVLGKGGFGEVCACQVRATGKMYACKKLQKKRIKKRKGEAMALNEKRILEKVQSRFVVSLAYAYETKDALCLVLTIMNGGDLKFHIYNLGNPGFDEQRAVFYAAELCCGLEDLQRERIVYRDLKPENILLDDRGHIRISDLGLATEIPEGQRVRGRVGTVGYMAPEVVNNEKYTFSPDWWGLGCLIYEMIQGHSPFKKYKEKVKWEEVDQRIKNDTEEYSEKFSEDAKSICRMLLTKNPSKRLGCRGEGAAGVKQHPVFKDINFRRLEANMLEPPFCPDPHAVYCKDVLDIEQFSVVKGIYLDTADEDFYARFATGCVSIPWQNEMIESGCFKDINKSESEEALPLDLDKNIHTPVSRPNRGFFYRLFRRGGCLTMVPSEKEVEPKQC

[31] = target: PTK2 (human) (UniProt Q05397)
[32] = target: WEE1 (human) (UniProt P30291)
Sequence of WEE1 (human) (P30291 whole entry, looked up): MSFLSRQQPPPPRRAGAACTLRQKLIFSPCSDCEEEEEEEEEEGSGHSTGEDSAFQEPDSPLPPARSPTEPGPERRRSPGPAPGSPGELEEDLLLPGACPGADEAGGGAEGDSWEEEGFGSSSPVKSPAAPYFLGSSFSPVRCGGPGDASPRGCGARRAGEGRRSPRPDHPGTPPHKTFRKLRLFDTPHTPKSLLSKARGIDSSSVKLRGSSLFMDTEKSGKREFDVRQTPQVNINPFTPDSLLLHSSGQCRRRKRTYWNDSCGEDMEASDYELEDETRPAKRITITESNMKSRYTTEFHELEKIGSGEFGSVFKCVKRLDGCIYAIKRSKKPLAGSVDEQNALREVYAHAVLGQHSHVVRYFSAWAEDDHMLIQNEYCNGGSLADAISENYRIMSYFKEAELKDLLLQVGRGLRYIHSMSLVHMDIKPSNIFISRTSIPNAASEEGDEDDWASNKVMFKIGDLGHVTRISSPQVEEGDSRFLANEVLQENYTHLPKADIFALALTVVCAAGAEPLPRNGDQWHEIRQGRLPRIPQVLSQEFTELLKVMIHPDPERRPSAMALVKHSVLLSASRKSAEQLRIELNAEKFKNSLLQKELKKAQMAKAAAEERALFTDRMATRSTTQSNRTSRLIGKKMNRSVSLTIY

[33] = target: PLK3 (human) (UniProt Q9H4B4)
[34] = target: JAK3 JH1 JH2 (human) (UniProt P52333)
[35] = target: MARK2 (human) (UniProt Q7KZI7)
[36] = target: FRK (human) (UniProt P42685)
[37] = target: INSRR (human) (UniProt P14616)
[38] = target: PHKG2 (human) (UniProt P15735)
[39] = target: PNCK (human) (UniProt Q6P2M8)
[40] = target: MAP3K9 (human) (UniProt P80192)
[41] = target: GRK7 (human) (UniProt Q8WTQ7)
[42] = target: MAPK3 (human) (UniProt P27361)

Sequence of PIM2 (human) (Q9P1W9 whole entry, looked up): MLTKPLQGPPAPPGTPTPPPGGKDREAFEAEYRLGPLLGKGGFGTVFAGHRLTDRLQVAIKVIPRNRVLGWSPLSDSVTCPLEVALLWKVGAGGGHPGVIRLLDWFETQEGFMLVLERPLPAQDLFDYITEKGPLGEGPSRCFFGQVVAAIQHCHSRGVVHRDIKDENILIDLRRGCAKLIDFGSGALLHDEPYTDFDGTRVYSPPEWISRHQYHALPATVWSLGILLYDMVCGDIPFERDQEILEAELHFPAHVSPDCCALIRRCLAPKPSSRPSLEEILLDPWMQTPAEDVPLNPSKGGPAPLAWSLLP

Cn1nc2c3c(cccc31)C(=O)c1ccccc1-2
residual activity [1]: 93.6%
residual activity [2]: 100%
residual activity [3]: 96.6%
residual activity [4]: 105%
residual activity [5]: 94.7%
residual activity [6]: 94%
residual activity [7]: 97.3%
residual activity [8]: 94.3%
residual activity [9]: 86.4%
residual activity [10]: 97.9%
residual activity [11]: 59.3%
residual activity [12]: 94.6%
residual activity [13]: 78.8%
residual activity [14]: 109%
residual activity [15]: 69.8%
residual activity [16]: 90.6%
residual activity [17]: 99.6%
residual activity [18]: 105%
residual activity [19]: 89.4%
residual activity [20]: 95.7%
residual activity [21]: 92%
residual activity [22]: 101%
residual activity [23]: 102%
residual activity [24]: 98.6%
residual activity [25]: 100%
residual activity [26]: 83.5%
residual activity [27]: 95.9%
residual activity [28]: 106%
residual activity [29]: 101%
residual activity [30]: 105%
residual activity [31]: 92.8%
residual activity [32]: 92.3%
residual activity [33]: 96.2%
residual activity [34]: 107%
residual activity [35]: 94.1%
residual activity [36]: 94.3%
residual activity [37]: 82.7%
residual activity [38]: 95.4%
residual activity [39]: 101%
residual activity [40]: 99.4%
residual activity [41]: 113%
residual activity [42]: 98.9%

COc1ccc(OC)c2c(=S)c3ccccc3[nH]c12
residual activity [1]: 104%
residual activity [2]: 86%
residual activity [3]: 96.7%
residual activity [4]: 103%
residual activity [5]: 101%
residual activity [6]: 61.3%
residual activity [7]: 108%
residual activity [8]: 104%
residual activity [9]: 83%
residual activity [10]: 99.4%
residual activity [11]: 71%
residual activity [12]: 87.1%
residual activity [13]: 95.7%
residual activity [14]: 95.8%
residual activity [15]: 104%
residual activity [16]: 77.6%
residual activity [17]: 91.1%
residual activity [18]: 95.8%
residual activity [19]: 116%
residual activity [20]: 88.3%
residual activity [21]: 99.1%
residual activity [22]: 109%
residual activity [23]: 112%
residual activity [24]: 112%
residual activity [25]: 114%
residual activity [26]: 89.6%
residual activity [27]: 94.9%
residual activity [28]: 103%
residual activity [29]: 114%
residual activity [30]: 103%
residual activity [31]: 106%
residual activity [32]: 102%
residual activity [33]: 99.8%
residual activity [34]: 96.7%
residual activity [35]: 93.9%
residual activity [36]: 88.8%
residual activity [37]: 88.7%
residual activity [38]: 94.6%
residual activity [39]: 97.3%
residual activity [40]: 102%
residual activity [41]: 102%
residual activity [42]: 103%

O=C(Nc1cccc(Nc2cc(Nc3cccc(C(F)(F)F)c3)ncn2)c1)C1CC1
residual activity [1]: 98.2%
residual activity [2]: 103%
residual activity [3]: 105%
residual activity [4]: 104%
residual activity [5]: 93.2%
residual activity [6]: 114%
residual activity [7]: 83.4%
residual activity [8]: 99.2%
residual activity [9]: 100%
residual activity [10]: 104%
residual activity [11]: 97.9%
residual activity [12]: 100%
residual activity [13]: 98.9%
residual activity [14]: 96.1%
residual activity [15]: 97.3%
residual activity [16]: 102%
residual activity [17]: 111%
residual activity [18]: 105%
residual activity [19]: 107%
residual activity [20]: 102%
residual activity [21]: 100%
residual activity [22]: 98.9%
residual activity [23]: 99.8%
residual activity [24]: 99.3%
residual activity [25]: 89.4%
residual activity [26]: 98.9%
residual activity [27]: 102%
residual activity [28]: 106%
residual activity [29]: 100%
residual activity [30]: 104%
residual activity [31]: 105%
residual activity [32]: 94%
residual activity [33]: 99.1%
residual activity [34]: 106%
residual activity [35]: 101%
residual activity [36]: 102%
residual activity [37]: 101%
residual activity [38]: 101%
residual activity [39]: 101%
residual activity [40]: 107%
residual activity [41]: 99%
residual activity [42]: 101%

CC(C)c1nn(-c2c(Cl)cccc2Cl)c2nc(Cc3ccc(OCCO)cc3)nc(O)c12
residual activity [1]: 96.8%
residual activity [2]: 85.6%
residual activity [3]: 92.2%
residual activity [4]: 104%
residual activity [5]: 101%
residual activity [6]: 47.1%
residual activity [7]: 109%
residual activity [8]: 101%
residual activity [9]: 87%
residual activity [10]: 96.9%
residual activity [11]: 74.2%
residual activity [12]: 91.3%
residual activity [13]: 96.6%
residual activity [14]: 98.9%
residual activity [15]: 81.2%
residual activity [16]: 81.1%
residual activity [17]: 99.2%
residual activity [18]: 97.5%
residual activity [19]: 107%
residual activity [20]: 93.3%
residual activity [21]: 96.7%
residual activity [22]: 97%
residual activity [23]: 104%
residual activity [24]: 102%
residual activity [25]: 116%
residual activity [26]: 104%
residual activity [27]: 97%
residual activity [28]: 104%
residual activity [29]: 125%
residual activity [30]: 97.3%
residual activity [31]: 103%
residual activity [32]: 109%
residual activity [33]: 99.1%
residual activity [34]: 103%
residual activity [35]: 88%
residual activity [36]: 89.6%
residual activity [37]: 94.2%
residual activity [38]: 102%
residual activity [39]: 94.3%
residual activity [40]: 95.7%
residual activity [41]: 106%
residual activity [42]: 101%
